From paper PMC8668240, “GABAA Receptor Subunit Composition Drives Its Sensitivity to the Insecticide Fipronil” (Frontiers in Neuroscience, 2021)

Experiments:
Experiment in all cases: two-electrode voltage clamp, Xenopus oocytes
Assay type in all cases: cell-based
α6β3 GABAAR (binary) [1] = biological target: T1, α6β3 GABAAR (binary) (Mus musculus, UniProt P16305+P63080)
T1 construct: gene Gabra6; full-length cDNAs, injected 1:1 in Xenopus oocyte nucleus; heteropentamer without third subunit

[2] = biological target: T2, α6β3δ GABAAR (extrasynaptic) (Mus musculus, UniProt P16305+P22933+P63080); settings: read-out: IC50 (μM, ± SEM)
T2 construct: gene Gabra6; full-length cDNAs, injected 1:1:5 in Xenopus oocyte nucleus; heteropentamer
T2 sequence (P63080 26-473): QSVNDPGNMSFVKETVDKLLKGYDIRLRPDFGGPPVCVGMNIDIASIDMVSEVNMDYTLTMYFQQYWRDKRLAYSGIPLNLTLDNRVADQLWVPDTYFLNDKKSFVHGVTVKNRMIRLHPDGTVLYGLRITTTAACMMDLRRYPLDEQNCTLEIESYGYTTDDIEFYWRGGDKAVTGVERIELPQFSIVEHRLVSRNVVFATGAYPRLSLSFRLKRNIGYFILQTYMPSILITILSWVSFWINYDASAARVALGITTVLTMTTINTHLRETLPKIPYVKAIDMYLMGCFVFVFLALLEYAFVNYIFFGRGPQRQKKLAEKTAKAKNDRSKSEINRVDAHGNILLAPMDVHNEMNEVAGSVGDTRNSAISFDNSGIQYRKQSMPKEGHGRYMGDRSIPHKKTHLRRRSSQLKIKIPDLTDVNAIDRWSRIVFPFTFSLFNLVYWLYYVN
T2 sequence (P22933 25-449): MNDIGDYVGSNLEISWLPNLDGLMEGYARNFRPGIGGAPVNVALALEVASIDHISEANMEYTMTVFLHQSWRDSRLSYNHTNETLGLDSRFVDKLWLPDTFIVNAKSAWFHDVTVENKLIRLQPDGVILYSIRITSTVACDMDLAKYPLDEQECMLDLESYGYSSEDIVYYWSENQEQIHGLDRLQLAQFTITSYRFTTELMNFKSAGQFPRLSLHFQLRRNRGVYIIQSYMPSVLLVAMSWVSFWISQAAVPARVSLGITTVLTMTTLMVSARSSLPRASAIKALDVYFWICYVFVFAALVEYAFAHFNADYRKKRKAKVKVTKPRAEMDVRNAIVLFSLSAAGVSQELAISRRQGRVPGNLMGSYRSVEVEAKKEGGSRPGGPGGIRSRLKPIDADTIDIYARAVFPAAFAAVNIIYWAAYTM
T2 sequence (P16305 20-453): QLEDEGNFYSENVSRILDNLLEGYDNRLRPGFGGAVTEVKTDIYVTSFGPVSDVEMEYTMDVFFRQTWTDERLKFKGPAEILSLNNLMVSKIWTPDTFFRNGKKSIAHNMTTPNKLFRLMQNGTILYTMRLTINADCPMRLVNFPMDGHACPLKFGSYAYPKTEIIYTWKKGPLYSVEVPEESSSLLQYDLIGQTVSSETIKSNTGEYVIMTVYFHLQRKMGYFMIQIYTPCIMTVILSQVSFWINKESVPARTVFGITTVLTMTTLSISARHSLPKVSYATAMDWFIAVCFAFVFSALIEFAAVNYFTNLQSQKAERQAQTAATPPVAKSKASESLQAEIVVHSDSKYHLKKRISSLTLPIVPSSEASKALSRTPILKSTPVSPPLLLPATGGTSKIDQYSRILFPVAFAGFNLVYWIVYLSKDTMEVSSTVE
Text: two-electrode voltage clamp, Xenopus oocytes on α6β3δ GABAAR (extrasynaptic)

α6β3 GABAAR (binary) [3] = biological target: T1, α6β3 GABAAR (binary); settings: read-out: IC50 (μM, ± SEM)
Text: two-electrode voltage clamp, Xenopus oocytes on α6β3 GABAAR (binary)

β3 homopentamer = biological target: T3, β3 homopentamer (Mus musculus, UniProt P63080); settings: current through spontaneously open β3; 1, 10 and 100 μM FPN; no GABA; positive modulator
T3 construct: gene Gabrb3; full-length cDNA in pGW1 (= pRK5), expressed in Xenopus oocytes; homopentamer
T3 sequence (P63080 26-473): as the sequence (P63080 26-473) above

T1 sequence (P16305 20-453): as the sequence (P16305 20-453) above
T1 sequence (P63080 26-473): as the sequence (P63080 26-473) above

| Structure (SMILES) | EC50 (α6β3 GABAAR (binary) [1]) | IC50 [2] | IC50 (α6β3 GABAAR (binary) [3]) | two-electrode voltage clamp, Xenopus oocytes (β3 homopentamer) |
| --- | --- | --- | --- | --- |
| NCCCC(=O)O [GABA] | 430 ± 10 nM |  |  |  |
| N#Cc1nn(-c2c(Cl)cc(C(F)(F)F)cc2Cl)c(N)c1[S+]([O-])C(F)(F)F (stereo not shown) [fipronil] |  | 20.7 ± 2.6 µM | 2.4 ± 0.4 µM | The current density increases as a function of FPN concentrations |
